Reference: patent US10966995B2, “Use of secoisolariciresinol diglucosides (SDGS) and related compounds for protection against radiation and chemical damage” (THE TRUSTEES OF THE UNIVERSITY OF PENNSYLVANIA, priority 2014, dated 2021)

Assays:
[1] = test system: murine primary lung cells (epithelial cells, endothelial cells and fibroblasts); experiment: Clonogenic survival of irradiated primary lung cells; assay type: cell-based, mouse
Description: (§1) Fibroblasts and endothelial cells were isolated from C57/bl6 mouse. For fibroblast isolation, mouse lungs were harvested, minced, and incubated with dispase (2 mg/ml) for 45 minutes. Pieces were plated out and fibroblasts were cultured as described previously and used between passages 3 and 10. Pulmonary microvascular endothelial cells (PMVEC) were isolated from murine lungs as described previously. Briefly, freshly harvested mouse lungs were treated with collagenase followed by isolation of cells by adherence to magnetic beads coated with mAb to platelet endothelial cell adhesion molecule (PECAM). Epithelial cells (C10) cells were originally derived from a normal BALB/c mouse lung explant and are non-tumorigenic, contact-inhibited, and have alveolar type 2 cell features at early passage.
Exponentially growing cells were plated as single cells and incubated overnight. Cells were treated with various doses of the lignan SDG (10-50 μM) 6 h prior to irradiation (2, 4, 6 and 8 Gy). Lignan dose was selected based on animal studies to be within the physiological levels reached in the blood circulation when 10% Flaxseed is ingested. Cells were irradiated with a Mark 1 cesium (Cs-137) irradiator (J. L. Shepherd, San Fernando, Calif.) at a dose rate of 1.7 Gy/min Colonies were stained and counted 10 to 15 days after irradiation and surviving fraction was calculated.

[2] = Hypochlorite scavenging with APF/HPF fluorescent probes (sodium hypochlorite); details: commercially available SDG; FIG. 15B
Description: The fluorescence of ROS probes APF and HPF in PBS was measured at excitation/emission at 490 nm/515 nm in presence of hypochlorite or after γ-radiation exposure. Data is expressed as relative fluorescence units (RFU).

[3] = test system: AOE gene expression (HO-1, NQO1, GST); experiment: AOE gene expression in lung in the pharmacokinetic study; assay type: in vivo, mouse; details: 100 mg SDG/Kg oral; p<0.05
Description: After selecting the 100 mg/kg dose as a dose that induces significant AOE expression while allowing for SDG to be detected in circulation, a pharmacokinetic study was performed to determine bioavailability and biological effects in target tissues (i.e., lung). Blood samples as well as tissues (lung, brain, liver, kidneys, spleen) were collected at 15 min, 30 min, and 1, 2, 4, 6, 8, 12 hours. SDG levels were determined as above in plasma and lung (FIGS. 41A-C). A single dose of 100 mg SDG/Kg was well absorbed and intact SDG was detectable in the circulation up to 6 hours post administration (FIG. 41A) and in flushed, blood-free lung tissues for 4 hours (FIG. 41B). […] The observed gene expression increase correlated with an increase in protein levels determined by western blotting (not shown). […] The use of SDG in human therapy is thus greatly facilitated and the toxicity risk is unlikely. Therefore a dose of 50-100 mg/Kg (1 or 2 mg SDG per day) is sufficient to induce the anticipated protective effects in target tissues and can be used for further study.

mouse RAW macrophages = experiment: Asbestos-induced ROS in RAW macrophages; assay type: cell-based
Description: SDG blunts asbestos-induced ROS secretion by human mesothelial cells in vitro (FIG. 50). Experimental plan for detecting asbestos-induced ROS in cells: (human mesothelial) HM cells or mouse macrophages plated in 20% DMEM for 24 hours; Added 20 μM DCF in HBSS for 1 hour; Supernatant replaced with 1% DMEM containing H2O2 (100 μM), asbestos (10 μg crocidolite/cm^2) and/or SDG (50 μM); and Fluorescence level monitored up to 36 hours post-initiation of asbestos exposure.
Asbestos-Induced Oxidative Stress (ROS release) in Culture RAW Macrophages was evaluated. Cells were treated with the ROS-sensitive dye H2DCFDA for 30 min and then they were exposed to vehicle to 40 μg/cm2 asbestos fibers, or 4 uM hypochlorite solution and fluorescence intensity was measured spectrophotometrically for 90, 150 minutes and 27 hours. Asbestos-induced ROS was generated shortly post asbestos exposure and continued for the duration of the observation period (FIG. 51).

[4] = test system: murine primary lung cells (epithelial, endothelial and WT fibroblasts); experiment: Alkaline comet assay (DNA SSBs) in irradiated primary lung cells; assay type: cell-based, mouse; details: 2 Gy
Description: as §1
Exponentially growing cells were cultured and treated with SDG (50 μM) at different time intervals prior to irradiation (2 Gy). Cells were processed for comet assay as per manufacturer's instructions (Trevigen, Gaithersburg, Md.). […] At least 150 cells were scored per group. Visual analysis of cells and comet tail length was measured using Comet Image Analysis software (Comet Assay IV, Perceptive Instruments Ltd, Haverhill, UK) Images were captured on an Olympus IX51 fluorescence microscope using a monochrome CCD FireWire camera.

human epithelial cells = experiment: BaP-induced genotoxic stress (p53 protein levels); assay type: cell-based; details: SDG 5, 10, 25 and 50 μM
Excerpt: Similarly, SDG prevents genotoxic stress in human epithelial cells exposed to BaP. Exposure of cells to a potent carcinogen such as BaP, induces genotoxic stress as indicated by increased levels of p53 protein (FIG. 25). […] SDG also prevents oxidative DNA damages in human epithelial cells exposed to BaP. Exposure of cells to a potent carcinogen such as BaP, induces oxidative DNA damage as indicated by increased levels of gamma-H2AX, a marker for double-stranded DNA breaks (FIG. 26). […] Furthermore, SDG prevents DNA adduct formation in human epithelial cells exposed to BaP. Exposure of cells to a potent carcinogen such as BaP, induces the formation of DNA adducts (FIG. 27). DNA adducts are pieces of DNA covalently linked to a carcinogen and is directly linked to the development of malignancy. The DNA adduct levels is decreased by the presence of SDG or its metabolites ED and EL given alone or in combination.

COc1cc(C[C@@H](CO[C@@H]2O[C@H](CO)[C@@H](O)[C@H](O)[C@H]2O)[C@H](CO[C@@H]2O[C@H](CO)[C@@H](O)[C@H](O)[C@H]2O)Cc2ccc(O)c(OC)c2)ccc1O [SDG, secoisolariciresinol diglucoside]
Colony forming ability, compound alone ([1]; SDG 10-50 μM alone, all three cell types, vs untreated control): did not elicit any adverse effect
Surviving fraction ([1]; SDG prior to irradiation, epithelial and endothelial cells (FIGS. 7A, 7B)): enhanced significantly
SDG concentration giving maximum protection against radiation-induced loss in clonogenicity ([1]; fibroblasts, 6 h pre-treatment): 50 µM
ClO^− scavenging [2]: decreased ClO^− dose-dependently
AOE gene expression levels (HO-1, NQO1, GST) over baseline [3]: significantly elevated
Asbestos-induced ROS (mouse RAW macrophages): blocks asbestos-induced ROS
Radiation-induced comet tail length ([4]; SDG 50 μM pre-treatment at all time intervals, all three cell types): significantly inhibited
Pre-treatment time giving maximum protection against radiation-induced tail moment ([4]; SDG 50 μM, all cell types): 6 h
p53 protein levels (genotoxic stress) (human epithelial cells): mitigated dose-dependently
